From ChEMBL document CHEMBL1795203, “Synthesis and evaluation of highly potent GABA(A) receptor antagonists based on gabazine (SR-95531)” (Bioorg Med Chem Lett, 2011)

Each compound was assayed against T1, GABA-A receptor; alpha-1/beta-2/gamma-2 (Homo sapiens, UniProt P14867+P18507+P47870) (assay: Antagonist activity at human recombinant GABA A receptor alpha1beta2gamma2S expressed in HEK293 cells assessed as inhibition of GABA-induced current by patch clamp electrophysiology).
T1 sequence (P14867 whole entry): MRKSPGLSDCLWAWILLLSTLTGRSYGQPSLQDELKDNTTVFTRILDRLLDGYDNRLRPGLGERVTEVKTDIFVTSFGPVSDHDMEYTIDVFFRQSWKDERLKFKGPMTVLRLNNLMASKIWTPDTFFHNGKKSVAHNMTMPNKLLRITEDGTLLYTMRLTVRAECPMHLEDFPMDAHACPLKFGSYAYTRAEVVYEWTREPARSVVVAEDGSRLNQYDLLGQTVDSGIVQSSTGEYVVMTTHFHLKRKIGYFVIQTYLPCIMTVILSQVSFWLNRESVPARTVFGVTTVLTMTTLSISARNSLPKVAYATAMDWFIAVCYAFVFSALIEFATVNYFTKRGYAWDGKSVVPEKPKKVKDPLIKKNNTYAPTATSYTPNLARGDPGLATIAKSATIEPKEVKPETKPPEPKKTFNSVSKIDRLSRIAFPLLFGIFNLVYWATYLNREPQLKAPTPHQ
T1 sequence (P47870 whole entry): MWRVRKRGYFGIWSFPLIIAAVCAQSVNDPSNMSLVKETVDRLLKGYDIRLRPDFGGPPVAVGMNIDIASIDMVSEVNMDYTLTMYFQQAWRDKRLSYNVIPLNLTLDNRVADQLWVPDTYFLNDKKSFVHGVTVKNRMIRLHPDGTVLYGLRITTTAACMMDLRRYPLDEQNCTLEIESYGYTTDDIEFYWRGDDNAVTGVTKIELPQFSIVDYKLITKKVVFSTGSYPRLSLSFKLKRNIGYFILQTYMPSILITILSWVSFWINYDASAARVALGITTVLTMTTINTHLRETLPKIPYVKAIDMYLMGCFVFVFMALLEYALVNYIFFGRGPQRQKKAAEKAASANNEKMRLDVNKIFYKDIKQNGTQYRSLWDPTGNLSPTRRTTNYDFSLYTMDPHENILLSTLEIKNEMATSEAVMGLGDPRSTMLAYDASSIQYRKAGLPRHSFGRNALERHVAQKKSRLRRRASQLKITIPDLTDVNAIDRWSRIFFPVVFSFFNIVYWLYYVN
T1 sequence (P18507 whole entry): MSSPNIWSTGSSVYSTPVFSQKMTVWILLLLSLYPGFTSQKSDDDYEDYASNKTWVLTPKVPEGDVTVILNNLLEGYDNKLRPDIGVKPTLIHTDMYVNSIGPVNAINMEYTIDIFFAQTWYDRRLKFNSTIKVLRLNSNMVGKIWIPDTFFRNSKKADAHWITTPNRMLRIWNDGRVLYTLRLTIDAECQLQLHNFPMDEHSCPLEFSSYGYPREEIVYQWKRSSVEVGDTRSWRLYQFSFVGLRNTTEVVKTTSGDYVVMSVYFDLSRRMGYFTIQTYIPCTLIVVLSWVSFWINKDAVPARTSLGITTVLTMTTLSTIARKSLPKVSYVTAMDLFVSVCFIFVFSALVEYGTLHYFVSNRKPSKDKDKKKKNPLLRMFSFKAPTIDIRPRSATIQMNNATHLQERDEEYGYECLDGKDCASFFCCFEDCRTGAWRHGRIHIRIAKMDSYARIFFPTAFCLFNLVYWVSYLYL
Type: functional, cell-based
Compound `N=c1ccc(-c2ccc(OCc3ccccc3)cc2)nn1CCCC(=O)O` has an IC50 of 11 nM. For `COc1cccc(COc2ccc(-c3ccc(=N)n(CCCC(=O)O)n3)cc2)c1`, the IC50 was 7 nM. In the case of `N=c1ccc(-c2ccc(OCc3cccc([N+](=O)[O-])c3)cc2)nn1CCCC(=O)O`, the IC50 is reported as 3 nM. Compound `C#CCOc1ccc(-c2ccc(=N)n(CCCC(=O)O)n2)cc1` has an IC50 of 40 nM. Work on `COc1ccc(-c2ccc(=N)n(CCCC(=O)O)n2)cc1` [GABAZINE] yielded an IC50 of 349 nM.
